Test results as given in patent US10246429B2, “Vinyl fluoride cyclopropyl fused thiazin-2-amine compounds as beta-secretase inhibitors and methods of use” (AMGEN INC., priority 2015, dated 2019).

Assays:
[1] = biological target: T1, BACE1 (Homo sapiens (Human), UniProt P56817); experiment: In vitro enzymatic BACE1 FRET assay; type: biochemical; conditions: read-out: IC50 IP (μM) BACE1 Enzyme
Target sequence in this assay (P56817 46-501): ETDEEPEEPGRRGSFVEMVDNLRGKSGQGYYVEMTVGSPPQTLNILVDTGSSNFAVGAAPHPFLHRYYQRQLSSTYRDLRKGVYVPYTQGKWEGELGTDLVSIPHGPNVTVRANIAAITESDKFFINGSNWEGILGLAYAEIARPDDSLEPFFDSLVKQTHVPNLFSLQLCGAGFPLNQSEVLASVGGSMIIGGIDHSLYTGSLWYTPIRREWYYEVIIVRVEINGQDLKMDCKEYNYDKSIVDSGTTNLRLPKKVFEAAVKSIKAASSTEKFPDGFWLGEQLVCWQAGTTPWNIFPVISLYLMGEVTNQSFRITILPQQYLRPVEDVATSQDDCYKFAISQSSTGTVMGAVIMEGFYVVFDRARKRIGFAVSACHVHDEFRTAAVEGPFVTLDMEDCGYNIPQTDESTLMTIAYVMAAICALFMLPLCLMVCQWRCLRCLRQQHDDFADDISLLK
Text: (§1) In Vitro Enzymatic BACE1 and BACE2 FRET (Fluorescence Resonance Energy Transfer) Assays (Enzyme Assay Data in Table 1)

[2] = biological target: T1, BACE1; experiment: BACE1 cell assay; type: cell-based
Target sequence in this assay (P56817 46-501, species assumed): as the sequence (P56817 46-501) above

[3] = biological target: BACE2 (Homo sapiens (Human), UniProt Q9Y5Z0); experiment: In vitro enzymatic BACE2 FRET assay; type: biochemical; conditions: read-out: IC50 IP (μM) BACE2 Enzyme
Text: as §1

[4] = biological target: Cathepsin D (CatD) (Homo sapiens (Human), UniProt P07339); experiment: CatD assay; type: biochemical; conditions: read-out: IC50 IP (μM) CatD
[5] = read-out: IC50 IP (μM) BACE1 Cell

Sequence of BACE2 (Q9Y5Z0 63-518): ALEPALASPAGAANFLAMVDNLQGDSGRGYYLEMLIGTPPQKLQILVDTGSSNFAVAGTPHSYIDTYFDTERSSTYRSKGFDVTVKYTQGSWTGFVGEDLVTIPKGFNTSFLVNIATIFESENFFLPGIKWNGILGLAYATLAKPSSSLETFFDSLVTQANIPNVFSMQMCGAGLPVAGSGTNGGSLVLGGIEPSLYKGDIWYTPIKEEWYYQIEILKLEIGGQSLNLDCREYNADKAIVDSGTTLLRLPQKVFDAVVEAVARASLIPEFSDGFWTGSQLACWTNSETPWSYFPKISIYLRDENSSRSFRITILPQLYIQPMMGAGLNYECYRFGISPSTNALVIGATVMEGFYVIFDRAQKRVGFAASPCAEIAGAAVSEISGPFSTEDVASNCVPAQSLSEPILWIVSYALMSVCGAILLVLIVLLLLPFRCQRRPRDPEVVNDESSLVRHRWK
Sequence of Cathepsin D (CatD) (P07339 65-412, species assumed): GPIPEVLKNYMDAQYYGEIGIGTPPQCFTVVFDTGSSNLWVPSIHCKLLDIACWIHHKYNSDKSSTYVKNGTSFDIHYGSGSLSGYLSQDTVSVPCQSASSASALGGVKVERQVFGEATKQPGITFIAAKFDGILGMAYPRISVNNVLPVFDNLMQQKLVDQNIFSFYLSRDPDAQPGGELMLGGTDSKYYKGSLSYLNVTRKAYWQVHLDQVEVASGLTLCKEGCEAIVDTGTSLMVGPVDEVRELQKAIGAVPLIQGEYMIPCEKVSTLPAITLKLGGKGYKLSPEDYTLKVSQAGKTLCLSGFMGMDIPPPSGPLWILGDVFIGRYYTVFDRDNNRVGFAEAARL

Row | SMILES | IC50 [1] | IC50 [2] | IC50 [3] | IC50 [4] | IC50 [2, 5]
1 | CNC(=O)[C@]12C[C@H]1[C@@](C)(c1cc(/C=C(\F)c3ncc(C#N)cc3C)ccc1F)N=C(N)S2 [Example 225, (1S,5S,6S)-3-amino-5-(5-((Z)-2-(5-cyano-3-methylpyridin-2-yl)-2-fluorovinyl)-2-fluorophenyl)-N,5-dimethyl-2-thia-4-azabicyclo[4.1.0]hept-3-ene-1-carboxamide] | 0.027 µM | 0.033 µM | 0.621 µM | 198 µM | 
2 | CNC(=O)[C@]12C[C@H]1[C@@](C)(c1cc(/C=C(\F)c3cnc(OCc4cnco4)cn3)ccc1F)N=C(N)S2 [Example 226, (1S,5S,6S)-3-amino-5-(2-fluoro-5-((Z)-2-fluoro-2-(5-(oxazol-5-ylmethoxy)pyrazin-2-yl)vinyl)phenyl)-N,5-dimethyl-2-thia-4-azabicyclo[4.1.0]hept-3-ene-1-carboxamide] | 0.126 µM | 0.608 µM | 0.285 µM | 18.5 µM | 
3 | C#CCOc1cnc(/C(F)=C/c2ccc(F)c([C@@]3(C)N=C(N)S[C@@]4(S(C)(=O)=O)C[C@H]43)c2)cn1 [Example 227, (1R,5S,6S)-5-(2-fluoro-5-((Z)-2-fluoro-2-(5-(prop-2-yn-1-yloxy)pyrazin-2-yl)vinyl)phenyl)-5-methyl-1-(methylsulfonyl)-2-thia-4-azabicyclo[4.1.0]hept-3-en-3-amine] | 0.0006 µM | 0.0105 µM | 0.058 µM | 55.1 µM | 
4 | C[C@]1(c2cc(/C=C(\F)c3cnc(Cl)cn3)ccc2F)N=C(N)S[C@@]2(S(C)(=O)=O)C[C@H]21 [Example 230, (1R,5S,6S)-5-(5-((Z)-2-(5-chloropyrazin-2-yl)-2-fluorovinyl)-2-fluorophenyl)-5-methyl-1-(methylsulfonyl)-2-thia-4-azabicyclo[4.1.0]hept-3-en-3-amine] | 0.0057 µM |  | 0.011 µM | 121 µM | 0.231 µM
5 | C#C[C@H](C)Oc1cnc(/C(F)=C/c2ccc(F)c([C@@]3(C)N=C(N)S[C@@]4(S(C)(=O)=O)C[C@H]43)c2)cn1 [Example 232, (1R,5S,6S)-5-(5-((Z)-2-(5-((S)-but-3-yn-2-yloxy)pyrazin-2-yl)-2-fluorovinyl)-2-fluorophenyl)-5-methyl-1-(methylsulfonyl)-2-thia-4-azabicyclo[4.1.0]hept-3-en-3-amine] | 0.001 µM |  | 0.108 µM | 88.5 µM | 0.0395 µM
6 | C[C@]1(c2cc(/C=C(\F)c3ccc(C#N)cn3)ccc2F)N=C(N)S[C@@]2(S(C)(=O)=O)C[C@H]21 [Example 233, 6-((Z)-2-(3-((1R,5S,6S)-3-amino-5-methyl-1-(methylsulfonyl)-2-thia-4-azabicyclo[4.1.0]hept-3-en-5-yl)-4-fluorophenyl)-1-fluorovinyl)nicotinonitrile] | 0.0016 µM |  | 0.014 µM | 204 µM | 0.0087 µM
7 | C#CCOc1cnc(/C(F)=C/c2ccc(F)c([C@@]3(C)N=C(N)S[C@@]4(C(C)=O)C[C@H]43)c2)cn1 [Example 234, 1-((1S,5S,6S)-3-amino-5-(2-fluoro-5-((Z)-2-fluoro-2-(5-(prop-2-yn-1-yloxy)pyrazin-2-yl)vinyl)phenyl)-5-methyl-2-thia-4-azabicyclo[4.1.0]hept-3-en-1-yl)ethanone] | 0.0059 µM | 0.0111 µM | 0.581 µM | 125 µM | 
8 | CC#CCOc1cnc(/C(F)=C/c2ccc(F)c([C@@]3(C)N=C(N)S[C@@]4(C(C)=O)C[C@H]43)c2)cn1 [Example 235, 1-((1S,5S,6S)-3-amino-5-(5-((Z)-2-(5-(but-2-yn-1-yloxy)pyrazin-2-yl)-2-fluorovinyl)-2-fluorophenyl)-5-methyl-2-thia-4-azabicyclo[4.1.0]hept-3-en-1-yl)ethanone] | 0.0022 µM |  | 0.247 µM | 587 µM | 0.0058 µM
9 | CC(=O)[C@]12C[C@H]1[C@@](C)(c1cc(/C=C(\F)c3cnc(OCC(F)(F)F)cn3)ccc1F)N=C(N)S2 [Example 236, 1-((1S,5S,6S)-3-amino-5-(2-fluoro-5-((Z)-2-fluoro-2-(5-(2,2,2-trifluoroethoxy)pyrazin-2-yl)vinyl)phenyl)-5-methyl-2-thia-4-azabicyclo[4.1.0]hept-3-en-1-yl)ethanone] | 0.118 µM |  | 1.28 µM | 400 µM | 0.284 µM
10 | CC(=O)[C@]12C[C@H]1[C@@](C)(c1cc(/C=C(\F)c3ccc(C#N)cn3)ccc1F)N=C(N)S2 [Example 238, 6-((Z)-2-(3-((1S,5S,6S)-1-acetyl-3-amino-5-methyl-2-thia-4-azabicyclo[4.1.0]hept-3-en-5-yl)-4-fluorophenyl)-1-fluorovinyl)nicotinonitrile] | 0.0121 µM | 0.0066 µM | 0.245 µM | 892 µM | 
11 | C#CCOc1cnc(/C(F)=C/c2ccc(F)c([C@@]3(C)N=C(N)S[C@@]4(C#N)C[C@H]43)c2)cn1 [Example 240, (1S,5S,6S)-3-amino-5-(2-fluoro-5-((Z)-2-fluoro-2-(5-(prop-2-yn-1-yloxy)pyrazin-2-yl)vinyl)phenyl)-5-methyl-2-thia-4-azabicyclo[4.1.0]hept-3-ene-1-carbonitrile] | 0.0012 µM |  | 0.081 µM | 124 µM | 0.0175 µM
12 | C[C@]1(c2cc(/C=C(\F)c3ccc(Cl)cn3)ccc2F)N=C(N)S[C@@]2(C(N)=O)C[C@H]21 [Example 242, (1S,5S,6S)-3-amino-5-(5-((Z)-2-(5-chloropyridin-2-yl)-2-fluorovinyl)-2-fluorophenyl)-5-methyl-2-thia-4-azabicyclo[4.1.0]hept-3-ene-1-carboxamide] | 0.0164 µM | 0.0181 µM | 0.034 µM | 205 µM | 
13 | C[C@]1(c2cc(/C=C(\F)c3ccc(C#N)cn3)ccc2F)N=C(N)S[C@@]2(C(N)=O)C[C@H]21 [Example 243, (1S,5S,6S)-3-amino-5-(5-((Z)-2-(5-cyanopyridin-2-yl)-2-fluorovinyl)-2-fluorophenyl)-5-methyl-2-thia-4-azabicyclo[4.1.0]hept-3-ene-1-carboxamide] | 0.003 µM | 0.0022 µM | 0.043 µM | 412 µM | 
14 | CC#CCOc1cnc(/C(F)=C/c2ccc(F)c([C@@]3(C)N=C(N)S[C@@]4(C#N)C[C@H]43)c2)cn1 [Example 244, (1S,5S,6S)-3-amino-5-(5-((Z)-2-(5-(but-2-yn-1-yloxy)pyrazin-2-yl)-2-fluorovinyl)-2-fluorophenyl)-5-methyl-2-thia-4-azabicyclo[4.1.0]hept-3-ene-1-carbonitrile] | 0.0004 µM |  | 0.055 µM | 150 µM | 0.0147 µM
15 | C[C@]1(c2cc(/C=C(\F)c3ccc(C#N)cn3)ccc2F)N=C(N)S[C@@]2(C#N)C[C@H]21 [Example 245, (1S,5S,6S)-3-amino-5-(5-((Z)-2-(5-cyanopyridin-2-yl)-2-fluorovinyl)-2-fluorophenyl)-5-methyl-2-thia-4-azabicyclo[4.1.0]hept-3-ene-1-carbonitrile] | 0.005 µM |  | 0.057 µM | 400 µM | 0.0341 µM
16 | CN(C)C(=O)[C@]12C[C@H]1[C@@](C)(c1cc(/C=C(\F)c3cn4cc(C#N)ccc4n3)ccc1F)N=C(N)S2 [Example 246, (1S,5S,6S)-3-amino-5-(5-((Z)-2-(6-cyanoimidazo[1,2-a]pyridin-2-yl)-2-fluorovinyl)-2-fluorophenyl)-N,N,5-trimethyl-2-thia-4-azabicyclo[4.1.0]hept-3-ene-1-carboxamide] | 0.171 µM |  | 0.39 µM | 53.1 µM | 0.05 µM
17 | COC(=O)[C@]12C[C@H]1[C@@](C)(c1cc(/C=C(\F)c3ccc(Cl)cn3)cc(F)c1F)N=C(N)S2 [Example 248, (1S,5S,6S)-methyl 3-amino-5-(5-((Z)-2-(5-chloropyridin-2-yl)-2-fluorovinyl)-2,3-difluorophenyl)-5-methyl-2-thia-4-azabicyclo[4.1.0]hept-3-ene-1-carboxylate] | 0.0625 µM | 1.59 µM | 0.083 µM | 200 µM | 
18 | CN(C)C(=O)[C@]12C[C@H]1[C@@](C)(c1cc(/C=C(\F)c3ncc4c(n3)OCCO4)ccc1F)N=C(N)S2 [Example 250, (1S,5S,6S)-3-amino-5-(5-((Z)-2-(6,7-dihydro-[1,4]dioxino[2,3-d]pyrimidin-2-yl)-2-fluorovinyl)-2-fluorophenyl)-N,N,5-trimethyl-2-thia-4-azabicyclo[4.1.0]hept-3-ene-1-carboxamide] | 0.029 µM |  | 0.076 µM | 368 µM | 0.017 µM
19 | C[C@]1(c2cc(/C=C(\F)c3ccc(C#N)cn3)ccc2F)N=C(N)S[C@]2(CO)[C@H]1C2(F)F [Example 251, 6-((Z)-2-(3-((1S,5S,6R)-3-amino-7,7-difluoro-1-(hydroxymethyl)-5-methyl-2-thia-4-azabicyclo[4.1.0]hept-3-en-5-yl)-4-fluorophenyl)-1-fluorovinyl)nicotinonitrile] | 0.012 µM |  | 0.159 µM | 360 µM | 0.062 µM
20 | C#CCOc1cnc(/C(F)=C/c2ccc(F)c([C@@]3(C)N=C(N)S[C@]4(CO)[C@H]3C4(F)F)c2)cn1 [Example 253, ((1S,5S,6R)-3-amino-7,7-difluoro-5-(2-fluoro-5-((Z)-2-fluoro-2-(5-(prop-2-yn-1-yloxy)pyrazin-2-yl)vinyl)phenyl)-5-methyl-2-thia-4-azabicyclo[4.1.0]hept-3-en-1-yl)methanol] | 0.0054 µM |  | 0.385 µM | 147 µM | 0.0636 µM
21 | C[C@]1(c2cc(/C=C(\F)c3ccc(Cl)cn3)ccc2F)N=C(N)S[C@]2(CO)[C@H]1C2(F)F [Example 255, ((1S,5S,6R)-3-amino-5-(5-((Z)-2-(5-chloropyridin-2-yl)-2-fluorovinyl)-2-fluorophenyl)-7,7-difluoro-5-methyl-2-thia-4-azabicyclo[4.1.0]hept-3-en-1-yl)methanol] | 0.0477 µM | 0.505 µM | 0.056 µM | 235 µM | 
